Here are results for ten molecules from publication PMC12525650, “Pharmacokinetic Profile of Extracts from the Chayote (Sechium edule) H387 07 Hybrid and Phytochemical Characterization of Its Segregant H387 M16 for Potential Therapeutic Applications” (Molecules, 2025).

The structures appear in SMILES notation. Read-outs that look alike come from different tables or passages of the source.

The nature of data set [1]: in vivo. Further details: species or system female CD-1 mice (Mus musculus L.). On the procedure:
Pharmacokinetic parameters were evaluated in female CD-1 mice (Mus musculus L.) provided by the vivarium of the Faculty of Higher Studies, Zaragoza, National Autonomous University of Mexico. All mice were clinically healthy, approximately 12 weeks old, and weighed ~30 g. […] Female mice were selected as the available cohort from the institutional vivarium, and their use allowed us to establish baseline pharmacokinetic parameters under standardized conditions. […] Animals were randomly assigned to treatment groups. Treatment allocation and sample collection were blinded. All experimental procedures were approved by the Research Ethics Committee of the Faculty of Higher Studies, Zaragoza (FESZ/CEI/1/1/5/27/23).
For the HPLC quantification of metabolites, concentrations were expressed as µg/mL for serum and urine and as µg/mg of tissue for liver samples. The results were translated into graphical form using the identified metabolites. The Cmax and time to reach maximum concentration (Tmax) of the secondary metabolites were obtained directly from the concentration–time curve.
The area under the plasma concentration–time curve from time zero to the last measurable concentration ( AUC0−t ) was calculated using the linear trapezoidal rule, according to the following formula: AUC0−t=∑i=1n−1Ci+Ci+1/2×ti+1−ti where Ci and Ci+1 are the plasma concentrations at consecutive time points ti and ti+1 . The total area under the curve ( AUC0−∞ ) was obtained as the sum of AUC0−t and the extrapolated area from the last measurable concentration to infinity, calculated as:(1) AUC0−∞=AUC0−t+Clast/kel where Clast is the final observed concentration and kel is the terminal final elimination constant estimated from the slope of the log-linear portion of the concentration–time curve.

For data set [2] the following is noted: cited from earlier work.
The conditions of data set [3]: cited from earlier work. This is another data set of the same source.
[4] abbreviates: female, CD-1, mouse, in vivo, po, 8 mg/kg.
[5] abbreviates: mice, serum, oral extract 8, 125, 250 mg/kg, 1, 6, 24, 48 h.
[6] abbreviates: mice, liver, oral extract 8, 125, 250 mg/kg, 1, 6, 24, 48 h.
[7] abbreviates: mice, oral extract 8, 125, 250 mg/kg, 1, 6, 24, 48 h.
[8] abbreviates: mice, plasma, oral extract 8 mg/kg.

In data set [1] (setting [4]), `O=c1cc(-c2ccc(O)cc2)oc2cc(O)cc(O)c12` [Apigenin] came in with an AUC of 2390 ± 210 ng·h/mL, an AUC(0-t) of 2120 ng·h/mL, a Clearance of 13.7 mL/min/kg and a Cmax of 850 ± 70 ng/mL. For the same molecule, in data set [1] (setting [4]), the T1/2 entry is “greater than 5.6 h” and the Vd is listed as 3.4 ± 0.5 L/kg. The molecule further gave a half-life in data set [1] (female, CD-1, mouse, in vivo, po, 8 mg/kg, T1/2) of 5.6 ± 0.3 h. The Tmax in data set [1] (female, CD-1, mouse, in vivo, po, 8 mg/kg, Tmax) turned out to be 1.5 ± 0.3 h. Besides, the “serum concentration, change with dose and time” value (“serum concentration, change” for short) in data set [1] (setting [5]) is “significantly increased with the 125 mg/kg doses at 24 and 48 h”. Also, the T1/2 in data set [2] (reported in rats) was 1.8 to 4.2 h.
For the molecule `CC(C)(O)/C=C/C(=O)[C@](C)(O)[C@H]1[C@H](O)C[C@@]2(C)[C@@H]3CC=C4[C@@H](C[C@H](O)C(=O)C4(C)C)[C@]3(C)C(=O)C[C@]12C` [CuD, Cucurbitacin D], the Tmax in data set [1] (female, CD-1, mouse, in vivo, mice, serum/plasma, oral extract 125 mg/kg, read-out: Tmax) was 24 h. Also, in data set [1] (setting [6]), the “liver concentration, change with dose and time” value (from here on “liver concentration, change”) is listed as “no significant variations”.
In the case of `CC(C)(O)/C=C/C(=O)[C@](C)(O)[C@H]1[C@H](O)C[C@@]2(C)[C@@H]3CC=C4[C@@H](C=C(O)C(=O)C4(C)C)[C@]3(C)C(=O)C[C@]12C` [CuI, cucurbitacin I], the “liver concentration, change” value in data set [1] (setting [6]) is “no significant variations”. Also, the liver concentration in data set [1] (mice, liver, oral extract 125 and 250 mg/kg) is reported as greater than 20 µg/mg. Moreover, the “serum concentration, change” value in data set [1] (setting [5]) is “concentrations remained near the limit of quantification”.
Consider `CC(=O)OC(C)(C)CCC(=O)[C@](C)(O)[C@H]1[C@H](O)C[C@@]2(C)[C@@H]3CC=C4[C@@H](C[C@H](O)[C@@H](O)C4(C)C)[C@]3(C)C(=O)C[C@]12C` [CuIIA, cucurbitacin IIA], for which the “time of absorption (Tmax) in previous reports” value in data set [3] was ~ 20 min. The “liver concentration, change” value in data set [1] (setting [6]) is reported as “remained significant for up to 48 h with the 250 mg/kg treatment”. Further, the “serum Tmax” value in data set [1] (mice, serum, across all doses (8, 125, 250 mg/kg)) is 24 h. Also, the “serum concentration, change” value in data set [1] (setting [5]) is on record as “transient decrease to near-zero concentrations at 6 h, followed by a marked increase at 24 h”. Also, in data set [1] (setting [7]), the “urine concentration, change with dose and time” value (from here on “urine concentration, change”) was “high concentrations were observed in urine”.
In the case of `CC(=O)OC(C)(C)/C=C/C(=O)[C@](C)(O)[C@H]1[C@H](O)C[C@@]2(C)[C@@H]3CC=C4[C@@H](C=C(O)C(=O)C4(C)C)[C@]3(C)C(=O)C[C@]12C` [Cucurbitacin E, cucurbitacin E], the peak plasma concentration entry in data set [3] (at 2 h post-dose) is given as “approximately 0.009 µg/mL”. The Cmax in data set [1] (female, CD-1, mouse, in vivo, po, 8 mg/kg, read-out: Cmax) was determined as 420 ng/mL. The Tmax in data set [1] (female, CD-1, mouse, in vivo, mice, plasma, oral extract 8 mg/kg, Table S1, unit inferred, read-out: Tmax) was 2.5 ± 0.3 h. For the same molecule, the AUC(0-t) in data set [1] (female, CD-1, mouse, in vivo, mice, plasma, oral extract 8 mg/kg, read-out: AUC0−t) was determined as 1450 ± 110 ng·h/mL. In addition, in data set [1] (female, CD-1, mouse, in vivo, mice, plasma, oral extract 8 mg/kg, read-out: AUC0 ∞), the AUC came to 1800 ng·h/mL. In addition, the half-life in data set [1] (female, CD-1, mouse, in vivo, mice, plasma, oral extract 8 mg/kg, read-out: T1/2 (converted)) was 8.4 ± 1.2 h. Also, in data set [1] (setting [6]), the “liver concentration, change” value is listed as “no significant variations”. In data set [1] (setting [8]), the Clearance was determined as 10.8 mL/min/kg and the Vd is 4.8 L/kg. The “urine concentration, change” value in data set [1] (setting [7]) is “clear increase under the 8 mg/kg treatment”.
Take `O=C1C[C@@H](c2ccc(O)cc2)Oc2cc(O)cc(O)c21` [Naringenin]: the “liver concentration, change” value in data set [1] (female, CD-1, mouse, in vivo) is “significantly decreased after 24–48 h with the 8 mg/kg dose”.
For `O=C(CCc1ccc(O)cc1)c1c(O)cc(O)cc1O` [Phloretin], in data set [1] (female, CD-1, mouse, in vivo), the “liver concentration, change” value was “increased significantly with a dose of 125 mg/kg at 6 and 48 h post-treatment”; the “serum concentration, change” value is “decreased between 6 and 24 h at 125 mg/kg”. Further, the Tmax in data set [1] (female, CD-1, mouse, plasma, po, 8 mg/kg, mice, plasma, oral extract 8 mg/kg, Table S1, unit inferred, read-out: Tmax) is 2 ± 0.4 h. The half-life in data set [1] (female, CD-1, mouse, plasma, po, 8 mg/kg, mice, plasma, oral extract 8 mg/kg, read-out: T1/2 (converted)) was 4.2 ± 0.6 h. Also, the Tmax in data set [1] (female, CD-1, mouse, plasma, po, 8 mg/kg, mice, plasma, oral extract 8 mg/kg, read-out: Tmax) amounted to 4.2 h. Also, in data set [1] (female, CD-1, mouse, plasma, po, 8 mg/kg, read-out: Cmax), the Cmax amounted to 1120 ng/mL. In addition, the AUC(0-t) in data set [1] (female, CD-1, mouse, mice, plasma, oral extract 8 mg/kg, read-out: AUC0−t) is 3450 ± 310 ng·h/mL. The AUC in data set [1] (female, CD-1, mouse, mice, plasma, oral extract 8 mg/kg, read-out: AUC0 ∞) was 6100 ng·h/mL. In addition, in data set [1] (setting [8]), the Clearance is 13.7 mL/min/kg and the Vd is listed as 0.95 L/kg.
As for `C[C@@H]1O[C@@H](OC[C@H]2O[C@@H](Oc3c(-c4ccc(O)c(O)c4)oc4cc(O)cc(O)c4c3=O)[C@H](O)[C@@H](O)[C@@H]2O)[C@H](O)[C@H](O)[C@H]1O` [Rutin], the “serum concentration, change” value in data set [1] (setting [5]) is “marked decrease at the 250 mg/kg dose”.
`O=c1cc(-c2ccc(O)cc2)oc2cc(O[C@@H]3O[C@H](CO)[C@@H](O)[C@H](O)[C@H]3O)cc(O)c12` [apigenin-7-O-β-D-glucoside, reference compound]: the “AUC0−t” value in data set [2] (rat, in vivo, iv) was 680 to 1560 ng·h/mL.
On to `COc1ccc([C@@H]2CC(=O)c3c(O)cc(O[C@@H]4O[C@H](CO[C@@H]5O[C@@H](C)[C@H](O)[C@@H](O)[C@H]5O)[C@@H](O)[C@H](O)[C@H]4O)cc3O2)cc1O` [hesperidin], for which, in data set [1] (setting [7]), the “urine concentration, change” value was “increased under the 8 mg/kg dose at 6 and 24 h”.

One may read the Cmax as the highest concentration seen after dosing. A word on the Tmax: it is the time at which the peak concentration occurs.
